The structures appear in SMILES notation. In brackets after ≈: the same amount, converted by molar mass. Activity calls are given as the source filed them.

A short description of data set [1]: Intrinsic clearance in human liver microsomes after 10 to 60 mins in presence of NADPH by LC/MS/MS analysis. Format: ADME, microsome. To be noted: read-out: CLH. (Liver microsomes are a subcellular fraction often used to study metabolism.)
Data set [2] in a line: Drug metabolism in Sprague-Dawley rat serum assessed as […] at 50 mg/kg administered via oral gavage after 6 hrs by LC/MS/MS analysis. Format: ADME, organism-based. To be noted: in vivo.
Data set [3] is described as follows: Half life in human liver microsomes after 10 to 60 mins in presence of NADPH by LC/MS/MS analysis. Format: ADME, microsome.
For data set [4], the system named is Staphylococcus aureus. The data set is described as follows: Antibacterial activity against methicillin-resistant Staphylococcus aureus 2658 RCMB after 18 to 20 hrs by broth microdilution method. Format: functional. A general note: Dilution methods test growth across graded concentrations, often in twofold steps.
Data set [5] can be described thus: Drug metabolism in Sprague-Dawley rat urine assessed as […] at 50 mg/kg administered via oral gavage after 24 hrs by LC/MS/MS analysis. Format: ADME, organism-based. To be noted: in vivo.
The test system of data set [6] is Staphylococcus aureus. The data set is described as follows: Antibacterial activity against methicillin-resistant Staphylococcus aureus USA300 infected in Balb/c mouse assessed as reduction in bacterial load in wound at 2% administered topically bid for 3 days starting 48 hrs post infection relative to control. Format: functional.
Data set [7] in a line: Drug metabolism in Sprague-Dawley rat urine assessed as CYP450-mediated oxidation at 50 mg/kg administered via oral gavage after 24 hrs by LC/MS/MS analysis. Format: ADME, organism-based. The note with it: in vivo.
The nature of data set [8]: Half life in human liver microsomes after 10 to 60 mins in absence of NADPH by LC/MS/MS analysis. Format: ADME, microsome.
Data set [9] can be described thus: Drug metabolism in Sprague-Dawley rat serum assessed as CYP450-mediated oxidation at 50 mg/kg administered via oral gavage after 6 hrs by LC/MS/MS analysis. Format: ADME, organism-based. To be noted: in vivo.
The test system of data set [10] is Staphylococcus aureus. The data set is described as follows: Potentiation of vancomycin-mediated antibacterial activity against vancomycin-resistant Staphylococcus aureus VRSA4 clinical isolate assessed as reduction in vancomycin MIC at 0.5 times MIC preincubated for 30 mins followed by vancomycin addition measured after 20 to 22 hrs relative to control. Format: functional.

Data set [11] concerns Staphylococcus aureus. The data set is described as follows: Antibacterial activity against methicillin/ciprofloxacin/clindamycin-resistant Staphylococcus aureus USA100 NRS382 clinical isolate after 18 to 20 hrs by broth microdilution method. Format: functional.
Data set [12] relates to Staphylococcus aureus. Nature of the data set: Antibacterial activity against methicillin/erythromycin/tetracycline-resistant Staphylococcus aureus USA300 NRS384 clinical isolate after 18 to 20 hrs by broth microdilution method. Format: functional.
Data set [13] relates to Staphylococcus aureus. Nature of the data set: Bactericidal activity against mupirocin/rifampicin-resistant Staphylococcus aureus RN4220 NRS107 clinical isolate after 24 hrs. Format: functional. The note with it: RN4220 NRS107, 24 h.
The subject of data set [14] is Staphylococcus aureus. Nature of the data set: Antibacterial activity against methicillin/ciprofloxacin/gentamicin/clindamycin-resistant Staphylococcus aureus USA200 NRS383 clinical isolate after 18 to 20 hrs by broth microdilution method. Format: functional.
Data set [15] concerns HaCaT. The data set is described as follows: Cytotoxicity against human HaCaT cells assessed as decrease in cell viability up to 8 ug/ml after 2 hrs by MTS assay. Format: cell-based. For orientation: Formazan colour is commonly taken as a measure of viable cells.
Data set [16] relates to Staphylococcus aureus. Nature of the data set: Antibacterial activity against mupirocin/rifampicin-resistant Staphylococcus aureus RN4220 NRS107 clinical isolate after 18 to 20 hrs by broth microdilution method. Format: functional.
Data set [17] concerns Staphylococcus aureus. The data set is described as follows: Bactericidal activity against vancomycin-resistant Staphylococcus aureus VRSA10 clinical isolate after 24 hrs. The note with it: VRSA10, 24 h. Format: functional.
In data set [18] the test system is Staphylococcus aureus. The data set is described as follows: Bactericidal activity against methicillin-resistant Staphylococcus aureus USA400 NRS123 clinical isolate after 24 hrs. Format: functional. To be noted: USA400 NRS123, 24 h.
The test system of data set [19] is Staphylococcus aureus. Nature of the data set: Bactericidal activity against methicillin/erythromycin/tetracycline-resistant Staphylococcus aureus USA300 NRS384 clinical isolate after 24 hrs. Format: functional. To be noted: USA300 NRS384, 24 h.
Data set [20] concerns Staphylococcus aureus. Nature of the data set: Potentiation of vancomycin-mediated antibacterial activity against vancomycin-resistant Staphylococcus aureus VRSA10 clinical isolate assessed as vancomycin MIC at 0.5 times MIC preincubated for 30 mins followed by vancomycin addition measured after 20 to 22 hrs (reference value: 512 ug/ml). Format: functional.
The test system of data set [21] is Staphylococcus aureus. Nature of the data set: Antibacterial activity against vancomycin-resistant Staphylococcus aureus VRSA4 clinical isolate after 18 to 20 hrs by broth microdilution method. Format: functional.
Data set [22] deals with Staphylococcus aureus. The data set is described as follows: Antibacterial activity against methicillin-resistant Staphylococcus aureus USA400 NRS123 clinical isolate after 18 to 20 hrs by broth microdilution method. Format: functional.
Data set [23] has as its system Staphylococcus aureus. The data set is described as follows: Bactericidal activity against vancomycin-resistant Staphylococcus aureus VRSA4 clinical isolate after 24 hrs. Format: functional. To be noted: VRSA4, 24 h.
Data set [24] relates to Staphylococcus aureus. The data set is described as follows: Antibacterial activity against vancomycin-resistant Staphylococcus aureus VRSA10 clinical isolate after 18 to 20 hrs by broth microdilution method. Format: functional.
Data set [25] relates to Staphylococcus aureus. Nature of the data set: Bactericidal activity against methicillin/ciprofloxacin/gentamicin/clindamycin-resistant Staphylococcus aureus USA200 NRS383 clinical isolate after 24 hrs. Format: functional. The note with it: USA200 NRS383, 24 h.
Data set [26] deals with J774. The data set is described as follows: Cytotoxicity against mouse J774 cells assessed as decrease in cell viability at 8 ug/ml after 2 hrs by MTS assay. Format: cell-based. The note with it: j774, 2 h.
For data set [27], the system named is Staphylococcus aureus. Nature of the data set: Bactericidal activity against methicillin/ciprofloxacin/clindamycin-resistant Staphylococcus aureus USA100 NRS382 clinical isolate after 24 hrs. Format: functional. The note with it: USA100 NRS382, 24 h.
In data set [28] the test system is Staphylococcus aureus. Nature of the data set: Bactericidal activity against methicillin-resistant Staphylococcus aureus USA400 NRS123 clinical isolate assessed as time required to reduce 4 log10CFU of bacterial load at 4 times MIC by time kill assay. Format: functional.
Data set [29] deals with HaCaT. Nature of the data set: Cytotoxicity against human HaCaT cells assessed as decrease in cell viability up to 16 ug/ml after 2 hrs by MTS assay. Format: cell-based.
Data set [30] relates to Staphylococcus aureus. Nature of the data set: Bactericidal activity against methicillin-resistant Staphylococcus aureus USA400 NRS123 clinical isolate assessed as reduction of bacterial load at 4 times MIC after 48 hrs by time kill assay. Format: functional.

As usually defined, the half-life is the time in which the quantity being followed falls by half. The term MIC denotes the smallest concentration in the dilution series that meets the test's criterion for growth inhibition. `CCCCc1ccc(-c2nc(C)c(/C(C)=N/NC(=N)N)s2)cc1`: the microsomal CLint in [1] was 80.3 µL/min/mg. Besides, the Drug metabolism result in data set [2], in data set [5], in [7] and in [9] was “Metabolite_Detected” in each case. The half-life is 28.8 min in data set [3] and more than 60 min in data set [8]. In data set [4], this molecule had an MIC of 3.75 µg/mL (≈ 11.4 µM). Besides, the Activity in data set [6] was 2.36 deltalog10CFU.

Broadly, the MBC is the smallest concentration meeting the test's criterion for killing. Low values mean more potent killing, high ones less potent killing. For the molecule `CCCCCCCOc1ccc(-c2nc(C)c(/C(C)=N/NC(=N)N)s2)cc1`, in data set [10], the “fold change (FC)” value amounted to 4. The minimum inhibitory concentration (MIC) is 1 µg/mL (≈ 2.58 µM) in data set [11]; 2 µg/mL (≈ 5.16 µM) in [12]; 0.5 µg/mL (≈ 1.29 µM) in [14]; 2 µg/mL (≈ 5.16 µM) in data set [16]; 0.74 µg/mL (≈ 1.91 µM) in data set [4]; more than 128 µg/mL in data set [20]. Also, the MIC in data set [21], in [22] and in data set [24] was 2 µg/mL (≈ 5.16 µM) each time. The MBC in data set [13] worked out at 2 µg/mL (≈ 5.16 µM); in data set [17] it was 2 µg/mL (≈ 5.16 µM); in data set [18], 4 µg/mL (≈ 10.3 µM); in data set [19] it was 2 µg/mL (≈ 5.16 µM); in data set [23], 2 µg/mL (≈ 5.16 µM); in data set [25], 1 µg/mL (≈ 2.58 µM). The MBC in data set [27] was determined as 1 µg/mL (≈ 2.58 µM). For the same molecule, the values for the Activity result in data set [15] and in data set [26] were “Non-Toxic” and “Toxic”, respectively.

As for `CCCCCCCCOc1ccc(-c2nc(C)c(/C(C)=N/NC(=N)N)s2)cc1`, the minimal inhibitory concentration (MIC) was found to be 2 µg/mL (≈ 4.98 µM) in [11]; 4 µg/mL (≈ 9.96 µM) in data set [12]; 1 µg/mL (≈ 2.49 µM) in data set [14]; 4 µg/mL (≈ 9.96 µM) in data set [16]; 15.6 µg/mL (≈ 38.9 µM) in data set [4]; 4 µg/mL (≈ 9.96 µM) in data set [21]. The MIC in data set [22] and in data set [24] was 4 µg/mL (≈ 9.96 µM) throughout. In addition, the Time entry in [28] was “<=2 hr”. Also, the MBC in data set [13] amounted to 8 µg/mL (≈ 19.9 µM); in [17] it was 4 µg/mL (≈ 9.96 µM); in [18] it was 8 µg/mL (≈ 19.9 µM); in [19], 4 µg/mL (≈ 9.96 µM); in [23] it was 4 µg/mL (≈ 9.96 µM); in data set [25] it was 2 µg/mL (≈ 4.98 µM). The MBC in [27] came to 2 µg/mL (≈ 4.98 µM). In addition, the Activity result in data set [29] is given as “Non-Toxic”. For the same molecule, in [30], the outcome was Active.

For the origin of these results see ChEMBL document CHEMBL4002577, “Phenylthiazole antibiotics: A metabolism-guided approach to overcome short duration of action” (Eur J Med Chem, 2017).
